# Assay results as given in publication PMC4326489, “Efficacy and pharmacokinetic evaluation of a novel anti-malarial compound (NP046) in a mouse model” (Malaria Journal, 2015).
# What was measured:
# [1] = Analyte stock solution stability; assay type: physicochemical; conditions: 100 days; for Analyte stock solution stability, % Reference: vs fresh
# Experimental: NP046 was stable for 100 days in stock solutions of methanol and acetonitrile when stored at room temperature and -20 °C. It was stable in whole blood on bench for 3.3 hours while waiting for extraction, and was stable after three freeze-thaw cycles too.
# [2] = system: Plasmodium berghei transfected with green fluorescence protein (strain ANKA); assay: In vivo efficacy (four-day dosing) in P. berghei-infected mice, % parasitaemia by flow cytometry; design: species or system Plasmodium berghei in male C57BL/6 mice; conditions: day five post-infection; for % parasitaemia: once a day for four days, mean ± S.E.M; for % growth inhibition: relative to negative control (placebo)
# Experimental: Plasmodium berghei transfected with green fluorescence protein (strain ANKA), a chloroquine-sensitive strain, was stored in liquid nitrogen. Parasites were thawed and administered intraperitoneally (IP) to infect two donor mice a week before the experiment commenced. […] Finally, each of the test animals received 200 μl of the P. berghei-infected RBCs (1×10^7 per 200 μl PBS) IP to infect them with the parasite. There were three animals per dose group, and each of them received 200 μl of NP046 in water orally and intravenously (volume adjusted relative to the weight of mouse) at their respective dose concentration as shown below:
# The test compound was administered to the animals once a day for four days. […] Blood samples were collected via tail bleeding in tubes containing PBS on day 5, and % parasitaemia was determined with FACSCalibur™ using the software CellQuestPro [5].
# Finally, the percentage parasite growth inhibition was calculated using the following equation [6]: [drawing 1]
# [3] = Lipophilicity, Log D by scaled-down shake-flask method (octanol/PBS); assay type: physicochemical; conditions: pH 7.4, read-out: Log D7.4
# Experimental: Lipophilicity is a compound’s tendency to partition into a non-polar lipid matrix versus an aqueous matrix. It is an important property of a drug which has a significant influence on the drug ADME/tox properties as well as its biological activity. […].
# Stock solutions of NP046 and controls in DMSO (10 mM) were prepared and an aliquot of each phase (octanol/PBS) was analysed by an HPLC-Diode array detector (DAD) method. Chromatographic separation was achieved on a Phenomenex® Kinetex C18 (50 × 2.1 mm i.d. 2.6 μm) column with a gradient elution, using mobile phase (A) 5 mM ammonium format-acetonitrile (95:5, v/v) and (B) 5 mM ammonium format-acetonitrile (5:95, v/v). The Log D values were calculated using the analyte peak areas obtained from each phase (Octanol/PBS) according to the following equation [12]: [drawing 2]
# [4] = Stability in whole blood (long term, freeze and thaw, on bench); assay type: in vitro ADME, human; conditions: for Long term stability, mean concentration found: -80°C, 92 days; for On bench stability, mean concentration found: on bench 3.3 hours
# Experimental: Owing to the scarcity of mouse blood, the assay was developed and validated using human whole blood and then cross validated with mice whole blood to ensure that the same results were obtained in the same matrix of both species. NP046 was stable for 100 days in stock solutions of methanol and acetonitrile when stored at room temperature and -20 °C. It was stable in whole blood on bench for 3.3 hours while waiting for extraction, and was stable after three freeze-thaw cycles too.
# Caco-2 cell line = assay: Caco-2 permeability, apical to basolateral drug transport assay; assay type: in vitro ADME, human; conditions: transport buffer pH 7.4, LC-MS/MS, experiment repeated with same result
# Source text: Permeability is the speed/velocity and extent to which a drug passes through a biological membrane obstacle in a living system, such as the gastrointestinal (GI) epithelial cells, the blood capillary wall, the target cell membrane. The Caco-2 cell line (a continuous line of heterogeneous human epithelial colorectal adenocarcinoma cells), the most widely used and recognized as a model of the intestinal barrier was used to determine the in vitro permeability of NP046 [for the methodology see Additional file 6]. The transport of each drug from the apical side to the basolateral side was done using a transport buffer that consisted of Hank’s Balanced Salt Solution (HBSS) + 10 mM HEPES + […] NaHCO3, pH 7.4 (1:100 1 M HEPES in HBSS). The drug transport assay was performed by determining the concentrations of the test compound from the basolateral chamber, using an LC-MS/MS assay. […] Therefore, the experiment was repeated and the same result was obtained. This could be due to the following reasons: IVc. Drug transport assay: The monolayer was rinsed with HBSS Test compounds (200 µl) was added into the apical chambers of the monolayers inserted in a plate containing 600 µl HBSS The plate was placed in a water bath with orbital shaker (60 rpm) for 2 hours at 37 °C Fifty micro litters of the solution were removed from the apical and basolateral wells and analysed using LC-MS method.
# [5] = whole blood, nominal High (799.9)
# [6] = whole blood, nominal Low (4.999)
structure (smiles),measurement,setting,value
"Oc1cc(CCCc2ccc(F)cc2)ccc1CN1CCCCC1 [NP046, 5-(3-(4-fluorophenyl)propyl)-2-(piperidin-1-ylmethyl)phenol]","Analyte stock solution stability, % Reference","[1]; in acetonitrile, room temperature",102.1%
same,"Analyte stock solution stability, % Reference","[1]; in acetonitrile, ~ 5°C",83.1%
same,"Analyte stock solution stability, % Reference","[1]; in acetonitrile, ~ -20°C",99.9%
same,"Analyte stock solution stability, % Reference","[1]; in methanol, room temperature",93.7%
same,"Analyte stock solution stability, % Reference","[1]; in methanol, ~ 5°C",87.8%
same,"Analyte stock solution stability, % Reference","[1]; in methanol, ~ -20°C",94.3%
same,stability in stock solutions,"[1]; methanol and acetonitrile, room temperature and -20°C",stable
same,% parasitaemia,[2]; 1 mg/kg IV,10.2 ± 1.75%
same,% growth inhibition,[2]; 5 mg/kg IV,87.4%
same,% parasitaemia,[2]; 5 mg/kg IV,4.05 ± 0.12%
same,% growth inhibition,[2]; 10 mg/kg oral,24.6%
same,% parasitaemia,[2]; 10 mg/kg oral,24.3 ± 0.80%
same,% growth inhibition,[2]; 50 mg/kg oral,47.3%
same,% parasitaemia,[2]; 50 mg/kg oral,16.7 ± 3.34%
same,logD,[3],2.6
same,stability in whole blood on bench,[4]; 3.3 hours while waiting for extraction,stable
same,long term matrix stability,[4]; whole blood at -80°C for 92 days,stable
same,"Long term stability, mean concentration found",[4]; [5],732. ng/ml
same,"Long term stability, mean concentration found",[4]; [6],5.081 ng/mL
same,"On bench stability, mean concentration found",[4]; [5],716.9 ng/mL
same,"On bench stability, mean concentration found",[4]; [6],5.370 ng/mL
same,stability after freeze-thaw cycles,"[4]; whole blood, three freeze-thaw cycles",stable
same,"Freeze and thaw stability, mean concentration found","[4]; whole blood, three freeze-thaw cycles, nominal High (799.9)",718.6 ng/mL
same,"Freeze and thaw stability, mean concentration found","[4]; whole blood, three freeze-thaw cycles, nominal Low (4.999)",5.037 ng/mL
same,test compound found in the basolateral chamber (apical to basolateral transport),Caco-2 cell line,no quantifiable amount
